Legend:
[1] = Drug excretion in F344/DuCrlCrlj rat urine at 1 mg/kg, iv administered via tail vein measured during 0 to 48 hrs by liquid scintillation counting; format: ADME, organism-based; set-up: dose 1 mg/kg, dosed compound name [14C]Rivoglitazone, route intravenous; settings: in vivo
[2] = Drug excretion in F344/DuCrlCrlj rat feces at 1 mg/kg, iv administered via tail vein measured during 0 to 48 hrs by liquid scintillation counting; format: ADME, organism-based; set-up: dose 1 mg/kg, dosed compound name [14C]Rivoglitazone, route intravenous; settings: in vivo
[3] = tested on: Rattus norvegicus; assay: Total drug excretion in F344/DuCrlCrlj rat at 1 mg/kg, iv administered via tail vein measured during 0 to 48 hrs by liquid scintillation counting; format: ADME, organism-based; set-up: dose 1 mg/kg, dosed compound name [14C]Rivoglitazone, route intravenous; settings: in vivo
[4] = Drug excretion in F344/DuCrlCrlj rat urine at 1 mg/kg, iv administered via tail vein measured during 0 to 168 hrs by liquid scintillation counting; format: ADME, organism-based; set-up: dose 1 mg/kg, dosed compound name [14C]Rivoglitazone, route intravenous; settings: in vivo
[5] = Drug excretion in F344/DuCrlCrlj rat feces at 1 mg/kg, iv administered via tail vein measured during 0 to 168 hrs by liquid scintillation counting; format: ADME, organism-based; set-up: dose 1 mg/kg, dosed compound name [14C]Rivoglitazone, route intravenous; settings: in vivo
[6] = tested on: Rattus norvegicus; assay: Total drug excretion in F344/DuCrlCrlj rat at 1 mg/kg, iv administered via tail vein measured during 0 to 168 hrs by liquid scintillation counting; format: ADME, organism-based; set-up: dose 1 mg/kg, dosed compound name [14C]Rivoglitazone, route intravenous; settings: in vivo
[7] = Drug excretion in F344/DuCrlCrlj rat urine at 1 mg/kg, po administered via gavage measured during 0 to 48 hrs by liquid scintillation counting; format: ADME, organism-based; set-up: dose 1 mg/kg, dosed compound name [14C]Rivoglitazone, route oral; settings: in vivo
[8] = Drug excretion in F344/DuCrlCrlj rat feces at 1 mg/kg, po administered via gavage measured during 0 to 48 hrs by liquid scintillation counting; format: ADME, organism-based; set-up: dose 1 mg/kg, dosed compound name [14C]Rivoglitazone, route oral; settings: in vivo
[9] = Drug excretion in bile duct-cannulated rat feces at 0.5 mg/kg, iv administered via tail vein measured during 0 to 48 hrs by liquid scintillation counting; format: ADME, organism-based; set-up: dose 0.5 mg/kg, dosed compound name [14C]Rivoglitazone, route intravenous; settings: in vivo
[10] = Drug excretion in bile duct-cannulated rat bile at 0.5 mg/kg, iv administered via tail vein measured during 0 to 48 hrs by liquid scintillation counting; format: ADME, organism-based; set-up: dose 0.5 mg/kg, dosed compound name [14C]Rivoglitazone, route intravenous; settings: in vivo
[11] = tested on: Rattus norvegicus; assay: Drug excretion in bile duct-cannulated rat cage wash at 0.5 mg/kg, iv administered via tail vein measured during 0 to 48 hrs by liquid scintillation counting; format: ADME, organism-based; set-up: dose 0.5 mg/kg, dosed compound name [14C]Rivoglitazone, route intravenous; settings: in vivo
[12] = tested on: Rattus norvegicus; assay: Total drug excretion in bile duct-cannulated rat at 0.5 mg/kg, iv administered via tail vein measured during 0 to 48 hrs by liquid scintillation counting; format: ADME, organism-based; set-up: dose 0.5 mg/kg, dosed compound name [14C]Rivoglitazone, route intravenous; settings: in vivo
[13] = Drug excretion in bile duct-cannulated rat urine at 0.5 mg/kg, po administered via gavage measured during 0 to 48 hrs by liquid scintillation counting; format: ADME, organism-based; set-up: dose 0.5 mg/kg, dosed compound name [14C]Rivoglitazone, route oral; settings: in vivo
[14] = Drug excretion in bile duct-cannulated rat feces at 0.5 mg/kg, po administered via gavage measured during 0 to 48 hrs by liquid scintillation counting; format: ADME, organism-based; set-up: dose 0.5 mg/kg, dosed compound name [14C]Rivoglitazone, route oral; settings: in vivo
[15] = Drug excretion in bile duct-cannulated rat bile at 0.5 mg/kg, po administered via gavage measured during 0 to 48 hrs by liquid scintillation counting; format: ADME, organism-based; set-up: dose 0.5 mg/kg, dosed compound name [14C]Rivoglitazone, route oral; settings: in vivo
[16] = tested on: Rattus norvegicus; assay: Drug excretion in bile duct-cannulated rat cage wash at 0.5 mg/kg, po administered via gavage measured during 0 to 48 hrs by liquid scintillation counting; format: ADME, organism-based; set-up: dose 0.5 mg/kg, dosed compound name [14C]Rivoglitazone, route oral; settings: in vivo
[17] = tested on: Rattus norvegicus; assay: Total drug excretion in bile duct-cannulated rat at 0.5 mg/kg, po administered via gavage measured during 0 to 48 hrs by liquid scintillation counting; format: ADME, organism-based; set-up: dose 0.5 mg/kg, dosed compound name [14C]Rivoglitazone, route oral; settings: in vivo
[18] = Drug excretion in monkey urine at 1 mg/kg, iv administered via tail vein measured during 0 to 48 hrs by liquid scintillation counting; format: ADME, organism-based, Macaca mulatta; set-up: dose 1 mg/kg, dosed compound name [14C]Rivoglitazone, route intravenous; settings: rhesus monkey, in vivo
[19] = Drug excretion in monkey feces at 1 mg/kg, iv administered […] measured during 0 to 48 hrs by liquid scintillation counting; format: ADME, organism-based, Macaca mulatta; set-up: dose 1 mg/kg, dosed compound name [14C]Rivoglitazone, route intravenous; settings: rhesus monkey, in vivo
[20] = tested on: Rhesus monkey; assay: Total drug excretion in monkey at 1 mg/kg, iv administered via tail vein measured during 0 to 48 hrs by liquid scintillation counting; format: ADME, organism-based, Macaca mulatta; set-up: dose 1 mg/kg, dosed compound name [14C]Rivoglitazone, route intravenous; settings: in vivo
[21] = Drug excretion in monkey urine at 1 mg/kg, iv administered via tail vein measured during 0 to 168 hrs by liquid scintillation counting; format: ADME, organism-based, Macaca mulatta; set-up: dose 1 mg/kg, dosed compound name [14C]Rivoglitazone, route intravenous; settings: rhesus monkey, in vivo
[22] = Drug excretion in monkey feces at 1 mg/kg, iv administered […] measured during 0 to 168 hrs by liquid scintillation counting; format: ADME, organism-based, Macaca mulatta; set-up: dose 1 mg/kg, dosed compound name [14C]Rivoglitazone, route intravenous; settings: rhesus monkey, in vivo
[23] = tested on: Rhesus monkey; assay: Drug excretion in monkey cage wash at 1 mg/kg, iv administered […] measured during 0 to 168 hrs by liquid scintillation counting; format: ADME, organism-based, Macaca mulatta; set-up: dose 1 mg/kg, dosed compound name [14C]Rivoglitazone, route intravenous; settings: in vivo
[24] = tested on: Rhesus monkey; assay: Total drug excretion in monkey at 1 mg/kg, iv administered via tail vein measured during 0 to 168 hrs by liquid scintillation counting; format: ADME, organism-based, Macaca mulatta; set-up: dose 1 mg/kg, dosed compound name [14C]Rivoglitazone, route intravenous; settings: in vivo
[25] = Drug excretion in monkey urine at 1 mg/kg, po administered via gavage measured during 0 to 48 hrs by liquid scintillation counting; format: ADME, organism-based, Macaca mulatta; set-up: dose 1 mg/kg, dosed compound name [14C]Rivoglitazone, route oral; settings: rhesus monkey, in vivo
[26] = Drug excretion in monkey feces at 1 mg/kg, po administered via gavage measured during 0 to 48 hrs by liquid scintillation counting; format: ADME, organism-based, Macaca mulatta; set-up: dose 1 mg/kg, dosed compound name [14C]Rivoglitazone, route oral; settings: rhesus monkey, in vivo
[27] = tested on: Rhesus monkey; assay: Total drug excretion in monkey at 1 mg/kg, po administered via gavage measured during 0 to 48 hrs by liquid scintillation counting; format: ADME, organism-based, Macaca mulatta; set-up: dose 1 mg/kg, dosed compound name [14C]Rivoglitazone, route oral; settings: in vivo
[28] = Drug excretion in monkey urine at 1 mg/kg, po administered via gavage measured during 0 to 168 hrs by liquid scintillation counting; format: ADME, organism-based, Macaca mulatta; set-up: dose 1 mg/kg, dosed compound name [14C]Rivoglitazone, route oral; settings: rhesus monkey, in vivo
[29] = Drug excretion in monkey feces at 1 mg/kg, po administered via gavage measured during 0 to 168 hrs by liquid scintillation counting; format: ADME, organism-based, Macaca mulatta; set-up: dose 1 mg/kg, dosed compound name [14C]Rivoglitazone, route oral; settings: rhesus monkey, in vivo
[30] = tested on: Rhesus monkey; assay: Drug excretion in monkey cage wash at 1 mg/kg, po administered via gavage measured during 0 to 168 hrs by liquid scintillation counting; format: ADME, organism-based, Macaca mulatta; set-up: dose 1 mg/kg, dosed compound name [14C]Rivoglitazone, route oral; settings: in vivo
[31] = tested on: Rhesus monkey; assay: Total drug excretion in monkey at 1 mg/kg, po administered via gavage measured during 0 to 168 hrs by liquid scintillation counting; format: ADME, organism-based, Macaca mulatta; set-up: dose 1 mg/kg, dosed compound name [14C]Rivoglitazone, route oral; settings: in vivo
[32] = tested on: Rattus norvegicus; assay: Total drug excretion in F344/DuCrlCrlj rat at 1 mg/kg, po administered via gavage measured during 0 to 48 hrs by liquid scintillation counting; format: ADME, organism-based; set-up: dose 1 mg/kg, dosed compound name [14C]Rivoglitazone, route oral; settings: in vivo
[33] = Drug excretion in F344/DuCrlCrlj rat urine at 1 mg/kg, po administered via gavage measured during 0 to 168 hrs by liquid scintillation counting; format: ADME, organism-based; set-up: dose 1 mg/kg, dosed compound name [14C]Rivoglitazone, route oral; settings: in vivo
[34] = Drug excretion in F344/DuCrlCrlj rat feces at 1 mg/kg, po administered via gavage measured during 0 to 168 hrs by liquid scintillation counting; format: ADME, organism-based; set-up: dose 1 mg/kg, dosed compound name [14C]Rivoglitazone, route oral; settings: in vivo
[35] = tested on: Rattus norvegicus; assay: Total drug excretion in F344/DuCrlCrlj rat at 1 mg/kg, po administered via gavage measured during 0 to 168 hrs by liquid scintillation counting; format: ADME, organism-based; set-up: dose 1 mg/kg, dosed compound name [14C]Rivoglitazone, route oral; settings: in vivo
[36] = Drug excretion in bile duct-cannulated rat urine at 0.5 mg/kg, iv administered via tail vein measured during 0 to 48 hrs by liquid scintillation counting; format: ADME, organism-based; set-up: dose 0.5 mg/kg, dosed compound name [14C]Rivoglitazone, route intravenous; settings: in vivo

Radiolabel recovery [1]: 25.5%
Radiolabel recovery [2]: 74.2%
Radiolabel recovery [3]: 99.7%
Radiolabel recovery [4]: 25.6%
Radiolabel recovery [5]: 75.4%
Radiolabel recovery [6]: 101%
Radiolabel recovery [7]: 18%
Radiolabel recovery [8]: 81.1%
Radiolabel recovery [9]: 7%
Radiolabel recovery [10]: 55.4%
Radiolabel recovery [11]: 5.7%
Radiolabel recovery [12]: 86.5%
Radiolabel recovery [13]: 19.9%
Radiolabel recovery [14]: 19.1%
Radiolabel recovery [15]: 37.2%
Radiolabel recovery [16]: 4.8%
Radiolabel recovery [17]: 81%
Radiolabel recovery [18]: 39.4%
Radiolabel recovery [19]: 10.3%
Radiolabel recovery [20]: 49.7%
Radiolabel recovery [21]: 47.4%
Radiolabel recovery [22]: 38.4%
Radiolabel recovery [23]: 0.1%
Radiolabel recovery [24]: 86%
Radiolabel recovery [25]: 29.7%
Radiolabel recovery [26]: 24.6%
Radiolabel recovery [27]: 54.3%
Radiolabel recovery [28]: 36.7%
Radiolabel recovery [29]: 53%
Radiolabel recovery [30]: 0.2%
Radiolabel recovery [31]: 90%
Radiolabel recovery [32]: 99.1%
Radiolabel recovery [33]: 18.3%
Radiolabel recovery [34]: 82%
Radiolabel recovery [35]: 100%
Radiolabel recovery [36]: 18.4%
Compound: COc1ccc2nc(COc3ccc(C[14CH]4SC(=O)NC4=O)cc3)n(C)c2c1 (racemic)
